The conditions of series [1]: Crystal; visual observation.
Series [2] can be described thus: xn = mol fraction of the nth substance listed. The conditions noted are these: 101 kPa, Liquid, Archimedean displacement method, x1 = 0.5.

Numbers after ± are expanded uncertainties.

For the molecule `[Cl-].[Na+]` [sodium chloride], in series [1], the Normal melting temperature came to 801 ± 1 °C.
Still for that read-out and setting: the result for `[Ag][I]` [silver iodide] reads 559 ± 1 °C.
In general, mass density refers to the mass of a sample divided by its volume. As to `[Ag][I]` [silver iodide] + [Cl-].[Na+], the mass density was found to be 3670 ± 37 kg/m3 in series [2] (1065 K); 3669 ± 37 kg/m3 in series [2] (1069 K); 3664 ± 37 kg/m3 in series [2] (1072 K); 3663 ± 37 kg/m3 in series [2] (1073 K); 3660 ± 37 kg/m3 in series [2] (1074 K); 3657 ± 37 kg/m3 in series [2] (1078 K). The mass density in series [2] (1084 K) was 3652 ± 37 kg/m3.

The values above are taken from the NIST ThermoML archive (doi:10.1016/j.jct.2013.03.027).
